The conditions of assay [1]: direct administration to the paraventricular nucleus of the hypothalamus of male rats; Non-Patent Document 6; cited from earlier work.
Assay [2] has as its system antiserum (rabbit, Peptide 7-KLH conjugate as antigen). In words: Binding specificity of antiserum by competitive RIA with [125I]-labeled Peptide 1. The procedure: As controls, reactions that use RIA buffer instead of the antiserum to measure non-specific binding, and reactions […] that use RIA buffer instead of VGF-derived peptide solutions to measure the maximum binding level were carried out. Reactions for non-specific binding were performed in quadruplicates, and the other reactions were performed in duplicates, and for each of the reactants, the immune complex was precipitated as in the above-mentioned antibody titer measurements, and its radioactivity (cpm) was measured. The average radioactivity of non-specific binding reaction is defined as non-specific binding level N, the radioactivity value for each VGF-derived peptide addition reaction is defined as Y, and the radioactivity value of maximum binding reaction is defined as Z. The percentage ratio (B/B0) of antiserum specific binding level (B) with peptide addition to the maximum binding level (B0), was determined using the following formula.
B/B0 (%)={(Y−N)/(Z−N)}×100
Accordingly, the amount of peptide that achieves 50% B/B0, more specifically, the amount of peptide that yields 50% inhibition of the maximum binding level, was used as an indicator of the peptide binding activity to the antiserum.
The amounts of peptide/tube used for performing the measurements were 0.5, 1, 2, 4, 8, 16, 32, 64, 128, 256, 512 and 1024 fmol for Peptide 1; 1, 2, 4, 8, 16, 32, 64, 128, 256, 512 and 1024 fmol for Peptide 2; 1, 3.3, 10, 33, 100, 333, 1000, 3300, 10,000, 33,000, 100,000, 333,000 and 1,000,000 fmol for Peptide 3; and 1,000, 10,000, 100,000 and 1,000,000 fmol for Peptide 8.

The subject of assay [3] is vascular cells of the apoaequorin-expressing mice. Kind of assay: Intracellular calcium ion increase (aequorin luminescence), blood vessel of apoaequorin-expressing mice. Format: cell-based, mouse. As to conditions: for intracellular calcium concentration in vascular cells (RLU per second): 5 μmol/L of peptide, added at 25 seconds; for luminescence in the blood vessel: organ pieces, peptide final concentrations of 1 μmol/L and of 5 μmol/L. The procedure: (§1) A heart or blood vessel is collected from transgenic mice systemically expressing apoaequorin (WO02/010371) produced by introducing an apoaequorin gene expression vector into fertilized eggs. The obtained heart or blood vessel is cut finely into pieces, suspended in a medium containing coelenterazine, and then incubated to incorporate coelenterazine into the cells to form aequorin (a complex of apoaequorin and coelenterazine). Since aequorin luminesces upon binding to intracellular calcium ions, the relative luminescence level in cells before and after addition of a medium containing the peptide or a pharmaceutically acceptable salt thereof is measured in a luminometer every second over time and is used as an indicator of intracellular calcium ion concentration. Increase in the relative luminescence level due to addition of the peptide or pharmaceutically acceptable salt thereof confirms that the peptide or pharmaceutically acceptable salt thereof has the activity to increase intracellular calcium ion concentration.
(§2) Whether Peptides 1 to 5, 9 and 10 synthesized in Example 2 have the activity of increasing intracellular calcium ion concentration was investigated using the organs of transgenic mice introduced with the apoaequorin gene and systemically expressing apoaequorin (hereinafter referred to as apoaequorin-expressing mice). In apoaequorin-expressing mouse cells, light is emitted when apoaequorin binds to a calcium ion in the presence of the luminescent substrate coelenterazine and thus the intracellular calcium ion concentration can be monitored. Patent Document (WO02/010371) discloses the method for producing apoaequorin-expressing mice, method for evaluating biologically active substances that use biological samples derived from the mice, and experimental results of evaluating biologically active peptides using the mouse organs as shown below. […] Therefore, apoaequorin-expressing mice can be used in the evaluation of the physiological activities of novel peptides.
(§3) Apoaequorin-expressing mice were produced according to the method disclosed in Reference Example 4 of Patent Document (WO02/010371). The apoaequorin-expressing mice were sacrificed, individual organs including thymus, spleen, bone, blood vessel, heart, kidney, adrenal gland, pancreas, pituitary gland, and uterus, were removed; and each of the organs was cut into small cubes of approximately 1 to 2 mm^3. Next, in 5-mL tubes (Rohren-Tubes; manufactured by Sarstedt, No. 55.476), three portions of each of the prepared organs were added to 50 μL of a 10 μmol/L solution of coelenterazine (manufactured by Molecular Probes) dissolved in RPMI 1640 medium, and these were cultured at 37° C. for three hours. After culturing, RPMI 1640 medium was added, and then Peptides 1 to 5, 9 and 10 dissolved in RPMI 1640 medium were added 25 seconds after the addition of RPMI 1640 until each peptide had final concentrations of 1 μmol/L and of 5 μmol/L, and the relative luminescence levels were measured every second immediately after the addition of RPMI 1640 medium by using a luminometer (AutoLumat LB953, manufactured by Berthold).
(A change in cytosolic calcium serves as a functional read-out for many receptors and channels.)

The next assay concerns thymus. Kind of assay: Aequorin luminescence, thymus of apoaequorin-expressing mice. Format: cell-based, mouse. As to conditions: organ pieces, peptide final concentrations of 1 μmol/L and of 5 μmol/L.
Description: as §2, §3

Another assay deals with spleen. In words: Aequorin luminescence, spleen of apoaequorin-expressing mice. Format: cell-based, mouse. Particulars: organ pieces, peptide final concentrations of 1 μmol/L and of 5 μmol/L.
Description: as §2, §3

The test system of a further assay is pituitary gland. Kind of assay: Aequorin luminescence, pituitary gland of apoaequorin-expressing mice. Format: cell-based, mouse. Particulars: organ pieces, peptide final concentrations of 1 μmol/L and of 5 μmol/L.
Description: as §2, §3

Assay [4] concerns cardiac cells of the apoaequorin-expressing mice. Kind of assay: Intracellular calcium ion increase (aequorin luminescence), heart of apoaequorin-expressing mice. The class given is cell-based, mouse. Particulars: for intracellular calcium concentration in cardiac cells (RLU per second): added at 25 seconds; for luminescence in the heart: organ pieces, peptide final concentrations of 1 μmol/L and of 5 μmol/L. The procedure: as §1, §2, §3

For a further assay, the system named is uterus. In words: Aequorin luminescence, uterus of apoaequorin-expressing mice. The class given is cell-based, mouse. As to conditions: organ pieces, peptide final concentrations of 1 μmol/L and of 5 μmol/L.
Description: as §2, §3

In assay [5] the target is antiserum showing an antibody titer of 9×10^5 (rabbit antiserum raised against the conjugate between Peptide 7 and KLH). In words: competitive RIA against [^125I]-labeled Peptide 1.
The mark [6] stands for this setting: non-VGF peptides at 1, 10, and 100 pmol.
[7] abbreviates: VGF-derived peptides, sequentially diluted.

No end group written: not given here.

For “rat VGF (599-617): partial peptide of rat VGF (556-617), positions 599-617 (LQEQEELENYIEHVLLHRP; UniProt P20156 599-617, looked up, fragment)”, in [1], the erection inducing activity result is on record as “showed an erection inducing activity”.
As for calcitonin, the “inhibition of antiserum binding to [125I]-labeled Peptide 1” value (“inhibition of antiserum binding” for short) in [2] (setting [6]) is given as “none of the peptides showed inhibition”.
For “Peptide 4: positions 586 to 615 of human VGF; same sequence as peptide V derived from bovine VGF (AQEEAEAEERRLQEQEELENYIEHVLLRRP; synthetic Peptide 4, positions 586-615 of human VGF, C-terminal VGF-derived peptide)”, in assay [3], the “intracellular calcium concentration in vascular cells (RLU per second)” value was “increase of intracellular calcium concentration” and the “luminescence in the blood vessel” value was “luminescence was observed”. Further, the “luminescence in the thymus” value in the assay on thymus is listed as “luminescence was observed”. Besides, the “luminescence in the spleen” value in the assay on spleen is given as “luminescence was observed”. In addition, the “luminescence in the pituitary gland” value with pituitary gland is recorded as “luminescence was observed”.
For neuromedin U-8, in assay [2] (setting [6]), the “inhibition of antiserum binding” value was “none of the peptides showed inhibition”.
The same measure, in the same setting: then PAMP-20, with “none of the peptides showed inhibition”; and “PHI-27 (HADGVFTSDFSKLLGQLSAKKYLESLM; ends and bridges not checked; UniProt P01282 81-107, looked up) [non-VGF peptide]”, with “none of the peptides showed inhibition”.
Regarding HYHHALPPSRHYP [Peptide 1], the “luminescence in the thymus” value with thymus is “luminescence was observed”. For the same molecule, in [4] (1 μmol/L of peptide), the “intracellular calcium concentration in cardiac cells (RLU per second)” value is reported as “increase of intracellular calcium concentration”. In [4], the “luminescence in the heart” value was “luminescence was observed”. In addition, the “inhibition of antiserum binding” value in assay [2] (setting [7]) is “same degree of quantity-dependent inhibition”. The “amount of peptide for 50% inhibition of the maximum binding level (50% B/B0)” value in assay [2] (antiserum diluted 9×10^5 folds, 4° C. for 40 hours) stood at 7.5 fmol. Moreover, the “luminescence in the uterus” value in the assay with uterus is “luminescence was observed”. Moreover, the “luminescence in the pituitary gland” value in the assay with pituitary gland is on record as “luminescence was observed”.
On to `NC(=O)CC[C@@H]1NC(=O)[C@H](Cc2ccccc2)NC(=O)[C@H](Cc2ccc(O)cc2)NC(=O)[C@@H](N)CSSC[C@@H](C(=O)N2CCC[C@H]2C(=O)N[C@@H](CCCN=C(N)N)C(=O)NCC(N)=O)NC(=O)[C@H](CC(N)=O)NC1=O` [vasopressin], for which, in assay [2] (setting [6]), the “inhibition of antiserum binding” value is on record as “none of the peptides showed inhibition”.
As for “Peptide 8: positions 606 to 615 of the human VGF amino acid sequence (YIEHVLLRRP; synthetic Peptide 8, positions 606-615 of human VGF, C-terminal VGF-derived peptide)”, in [2] (setting [7]), the “inhibition of antiserum binding” value is “did not show any inhibition”.
With “rat VGF (588-617): partial peptide of rat VGF (556-617), positions 588-617 (AQEEADAEERRLQEQEELENYIEHVLLHRP; UniProt P20156 588-617, looked up, fragment)”, in [1], the erection inducing activity result is “showed an erection inducing activity”.
On to “Peptide 10: positions 533 to 552 of the amino acid sequence of human VGF (EEDEVYPPGPYHPFPNYIRP; synthetic Peptide 10, positions 533-552 of human VGF, C-terminal VGF-derived peptide)”, for which, in [3], the “intracellular calcium concentration in vascular cells (RLU per second)” value was “increase in the intracellular calcium concentration” and the “luminescence in the blood vessel” value is “luminescence was observed”. For the same molecule, in [4] (1 μmol/L of peptide), the “intracellular calcium concentration in cardiac cells (RLU per second)” value was “increase of intracellular calcium concentration”. In assay [4], the “luminescence in the heart” value was “luminescence was observed”.
Consider “rat VGF (577-617): partial peptide of rat VGF (556-617), positions 577-617 (HHPDLEAQARRAQEEADAEERRLQEQEELENYIEHVLLHRP; UniProt P20156 577-617, looked up, fragment)”, for which, in [1], the erection inducing activity entry is reported as “showed an erection inducing activity”.
As to adrenomedulin, the “inhibition of antiserum binding” value in assay [2] (setting [6]) is on record as “none of the peptides showed inhibition”.
For “Peptide 9: positions 485 to 503 of the amino acid sequence of human VGF (NAPPEPVPPPRAAPAPTHV; synthetic Peptide 9, positions 485-503 of human VGF, C-terminal VGF-derived peptide)”, in assay [3], the “intracellular calcium concentration in vascular cells (RLU per second)” value is recorded as “increase of intracellular calcium concentration” and the “luminescence in the blood vessel” value is listed as “luminescence was observed”.
In the case of substance K, the “inhibition of antiserum binding” value in assay [2] (setting [6]) was “none of the peptides showed inhibition”.
Regarding “rat VGF (556-576): partial peptide of rat VGF, positions 556-576”, the erection inducing activity result in assay [1] is “this activity was not observed”.
For corticotropin-releasing factor, the “inhibition of antiserum binding” value in assay [2] (setting [6]) is listed as “none of the peptides showed inhibition”.
Same read-out and setting: next, Leu-enkephalin: “none of the peptides showed inhibition”; calcitonin receptor-stimulating peptide: “none of the peptides showed inhibition”.
As to “Met-enkephalin-Arg-Gly-Leu (YGGFMRGL) [non-VGF peptide]”, in [2] (setting [6]), the “inhibition of antiserum binding” value was “none of the peptides showed inhibition”.

B1: Peptide 5: positions 554 to 615 in the amino acid sequence of human VGF (peptide)
chain: TLQPPSALRRRHYHHALPPSRHYPGREAQARRAQEEAEAEERRLQEQEELENYIEHVLLRRP
modifications: synthetic Peptide 5, positions 554-615 of human VGF, C-terminal VGF-derived peptide
For the molecule B1, in assay [4] (5 μmol/L of peptide), the “intracellular calcium concentration in cardiac cells (RLU per second)” value is “increase of intracellular calcium concentration”. In assay [4], the “luminescence in the heart” value is reported as “luminescence was observed”.
H-TLQPPSALRRRHYHHALPPSRHYPGREAQA-OH [Peptide 3 (SEQ ID NO: 2)]: in [5], the fold amount required for the same degree of inhibition as Peptides 1 and 2 came to 10000 fold.

Values taken from patent US20100248255A1, “NOVEL PEPTIDES” (KYOWA HAKKO KOGYO CO., LTD, priority 2005, published 2010).
